Tests used:
[1] = system: HEK293 (non-cancer, p53-WT) cells; assay: Intracellular [Zn2+]free imaging with FluoZin-3-AM, HEK293; type: cell-based; settings: for increase of intracellular [Zn2+]free (FZ3 fluorescence): HEK293, complete media
Method: To minimize the potential for Zn^2+ contamination and contributions from poorly defined elements in complete media (e.g. FBS), cells were treated and imaged in Ca^2+ and Mg^2+-free Earle's Balanced Salt Solution supplemented with 10 mM HEPES pH 7.4 (EBSS/H (−)Ca/Mg). Excess ZnCl2 with the Zn^2+ ionophore pyrithione (PYR) was used as a positive control. Excess membrane-permeable Zn^2+ chelator N,N,N′,N′-tetrakis(2-pyridylmethyl)ethane-1,2-diamine (TPEN) was used as a negative control.
To normalize for differential dye loading, cells were then sequentially treated with excess PYR/ZnCl2, imaged, treated with TPEN, and imaged again. PYR/ZnCl2 and TPEN served to saturate and apoize the intracellular FZ3, respectively.
TOV112D or HEK293 cells (40,000 cells/well) were plated on either 8-well BD Falcon chambered culture slides (Corning Life Sciences) or 8-chambered #1.5 Nunc Lab-Tek II chambered coverglasses (Thermo Scientific) treated with poly-L-lysine. After 48 h, cells were washed 2×5 m in serum-free media and incubated with 1 μM FZ3-AM for 40 m at 37° C. Cells were then washed 2×5 m in either EBSS/H (−)Ca/Mg or phenol-red free DMEM+10% FBS containing the indicated treatments for 20 m before imaging. For nuclear colocalization, 1 μg/mL Hoechst 33342 was also included. Cells were imaged using a Zeiss LSM510 META NLO confocal microscope equipped with 37° C. environmental control chamber. FZ3 and Hoechst 33342 were excited at 488 nm (argon laser) and 790 nm (Chameleon Ti:sapphire laser), respectively. To determine the kinetics of fluorescence change, each background-subtracted image in the time-lapse series was integrated in ImageJ and normalized to the integrated fluorescence of the first frame after treatment. For quantification of intracellular [Zn^2+]free, each cell was analyzed in the treated, 50 μM PYR/ZnCl2 (1:1), and 100 μM TPEN images by taking the mean fluorescence of an ROI inside the cell subtracted by an ROI immediately outside the cell measured in ImageJ. The [Zn^2+]free for each cell was then calculated by Eqn 2:
[formula] […] To minimize the effects of outliers the lowest and highest 5% of cells in each series were rejected, and the remaining values averaged to give the value from that experiment. The number of cells analyzed in each trial ranged from 54-163. For nuclear colocalization, treated, PYR/ZnCl2, and TPEN treated images costained with Hoechst 33342 were aligned and each pixel subjected to Eqn. 2 in MATLAB (MathWorks).

H1299 (p53-null) = assay: Three day cell growth inhibition assay, H1299; type: cell-based, human; settings: FIG. 2
[2] = Liposome import assay (RhodZin-3 in DOPC liposomes); settings: for transport of Zn2+ into liposomes (rate of RZ-3 fluorescence increase): external [Zn2+]free 10 μM
Method: Zn^2+ alone was unable to permeate the liposomal membrane as indicated by the lack of RZ-3 fluorescence increase.
It can function as an ionophore in conditions of the liposome experiments where external [Zn^2+]free was 10 μM. However, in complete media containing 10% fetal bovine serum (FBS), Zn^2+-binding proteins from the serum (e.g. albumin) necessarily compete for Zn^2+ with any putative MC, making the effective [Zn^2+]free much lower than [Zn^2+]total.
DOPC-liposomes were prepared by film rehydration and extrusion followed by gel filtration and diluted to an OD600=0.06 in buffer. The size distribution of the liposomes was determined by dynamic light scattering (DLS) using a Malvern Zetasizer Nano ZS. Fluorescence measurements were taken on a Horiba Fluoromax-4 spectrofluorimeter in a 5×5 mm quartz cuvette with λex/λem=550/572 nm for RZ-3 and 490/515 nm for calcein. Initial Zn^2+ import/export was quantified by fitting the first 10-30 s of data after each treatment to a line and converted to units of flux using the following Eqn 1:
[formula] where Ji is the initial flux, ΔF/Δt is the slope of the fit line, Fmax is RZ-3 fluorescence in the presence of saturating Zn^2+ and 1% TritonX-100, Fmin is RZ-3 fluorescence in the presence of excess EDTA and 1% TritonX-100, [RZ3] is the concentration of encapsulated RZ-3, and SA/Vol is the surface area to volume ratio calculated assuming hollow spheres of the mean diameter determined by DLS. Intracellular [Zn^2+]free Imaging

H460 (p53-WT) = assay: Three day cell growth inhibition assay, H460; type: cell-based, human; settings: H460 (p53 wildtype), FIG. 2
[3] = Mouse survival, daily IP administration (Example 13); type: in vivo; settings: mice, ZN1 5.6 mg/kg vs ZMC1 5 mg/kg IP daily, FIG. 5

Compound	t1/2 of intracellular [Zn2+]free increase ([1]; HEK293, ZMC1 and ZnCl2, EBSS/H (−)Ca/Mg, mean±SD, n=4)	increase of intracellular [Zn2+]free (FZ3 fluorescence) [1]	cell growth inhibition (cell killing) (H1299 (p53-null))	Zn2+ export from liposomes (RZ-3 fluorescence) ([2]; excess EDTA outside the liposomes)	transport of Zn2+ into liposomes (rate of RZ-3 fluorescence increase) [2]	cell growth inhibition (cell killing) (H460 (p53-WT))	potency in vivo (survival) relative to monomer ZMC1 [3]
C/C(=N\NC(=S)N1CCC1)c1ccccn1 [Compound 6, (E)-N′-(1-(pyridin-2-yl)ethylidene)azetidine-1-carbothiohydrazide]	2.07 ± 0.333 min	increased intracellular [Zn^2+]free	undisturbed	time dependent decrease in RZ-3 fluorescence	dose-dependent increase	undisturbed	
[Zn(ZMC1)2] [Compound 12]							greater potency
O=C(O)CN(CC(=O)O)CC(=O)O [NTA, reference compound]		did not			did not		
C/C(=N\NC(=O)N1CCC1)c1ccccn1 [Compound 10, (E)-N′-(1-(pyridin-2-yl)ethylidene)azetidine-1-carbohydrazide]		did not			shuttled Zn^2+ into the liposomes		

Reference: patent publication US10604481B2, “(Thio, oxo and seleno) semicarbazone complexes with zinc and their use for treating cancer” (RUTGERS, THE STATE UNIVERSITY OF NEW JERSEY, priority 2015, dated 2020)
